# Source: patent US6482858B1, “(−)-hydroxycitric acid for wound healing and immunomodulation” (priority 2001, dated 2002)
# Like-named read-outs stand apart in the source and are kept apart here.
# Experiments:
# [1] = Single-subject trial of potassium HCA: skin health and psoriasis; type: in vivo, human; details: middle-aged subject
# Source text: The results in the above examples led us to question whether HCA might be useful as a supplement for individuals not in need of weight loss and not under obvious stress. To this end, a middle-aged subject ingested approximately 2 to 3 grams HCA in the form of the potassium salt twice daily for 10 days. They were instructed to report on effects other than those which were to be expected, i.e., effects other than appetite control. Two quite interesting findings typical of re-regulation of corticoid metabolism emerged from this crude trial. […] These effects were similar in kind, although greater in degree, than this subject had experienced in the past when experimenting with relatively large dosages of melatonin (5 to 20 mg taken at bedtime) and, when much younger, amino acid supplementation designed to improve growth hormone release. We interpreted this finding as indicative of the normalization of melatonin and growth hormone metabolism. None of the side effects typical of elevated melatonin supplementation, such as morning grogginess or nasal congestion, were noted. Second, this subject noticed an improvement in their psoriasis during the last few days of the trial. In this subject's past experience, supplements which tended to improve their overall immune response and skin tone—including melatonin—at the same time tended to worsen their psoriasis. Therefore, this subject's experience with HCA was in line with the reports in the published literature regarding the condition as representative of corticoid and circadian dysregulation.
# [2] = target: cortisol receptors (Homo sapiens, UniProt P04150); details: cited from earlier work
# cortisol receptors, sequence (P04150 whole entry): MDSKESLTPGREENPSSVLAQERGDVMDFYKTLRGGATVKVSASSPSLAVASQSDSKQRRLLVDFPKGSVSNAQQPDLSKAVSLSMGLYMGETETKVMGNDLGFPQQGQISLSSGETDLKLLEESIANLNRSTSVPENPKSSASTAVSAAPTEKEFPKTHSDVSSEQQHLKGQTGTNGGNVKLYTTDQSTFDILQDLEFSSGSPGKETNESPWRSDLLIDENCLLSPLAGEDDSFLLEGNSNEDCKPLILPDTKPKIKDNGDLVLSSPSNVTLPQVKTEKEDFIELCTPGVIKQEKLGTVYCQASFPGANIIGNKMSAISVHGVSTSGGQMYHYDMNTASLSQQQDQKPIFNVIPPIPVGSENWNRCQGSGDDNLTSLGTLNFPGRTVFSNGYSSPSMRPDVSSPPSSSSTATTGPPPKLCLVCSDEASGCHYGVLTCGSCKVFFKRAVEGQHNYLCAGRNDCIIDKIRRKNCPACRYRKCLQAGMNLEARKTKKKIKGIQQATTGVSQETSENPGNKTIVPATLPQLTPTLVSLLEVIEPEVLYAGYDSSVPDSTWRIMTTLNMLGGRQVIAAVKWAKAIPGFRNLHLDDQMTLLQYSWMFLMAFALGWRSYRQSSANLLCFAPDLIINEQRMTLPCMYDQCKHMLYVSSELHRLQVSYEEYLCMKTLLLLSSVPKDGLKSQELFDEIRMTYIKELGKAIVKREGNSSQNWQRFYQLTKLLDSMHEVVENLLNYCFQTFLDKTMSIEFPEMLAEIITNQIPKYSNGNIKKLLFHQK
# [3] = cited from earlier work; for % Body H2O / % Ash, wet / % Fat, wet / % Protein, wet: mean; for % Body H2O: 52.6 mmol/kg diet, six weeks; for % Ash, wet / % Fat, wet / % Protein, wet: wet weight
structure (smiles),measurement,setting,value
"O=C(O)CC(O)(C(=O)O)C(O)C(=O)O (single isomer, unassigned; (-)) [HCA, (−)-hydroxycitric acid]","Side effects typical of elevated melatonin supplementation (morning grogginess, nasal congestion)",[1]; 10 days,None
same,Psoriasis,"[1]; approximately 2 to 3 grams twice daily for 10 days, last few days of the trial",improvement
same,Skin tone,"[1]; approximately 2 to 3 grams twice daily, before the first week had passed",improved markedly
"CC#C[C@]1(O)CC[C@H]2[C@@H]3CCC4=CC(=O)CCC4=C3[C@@H](c3ccc(N(C)C)cc3)C[C@@]21C [RU 486, mifepristone]",Plasma ACTH and cortisol,"[2]; 10 mg/kg.day oral, 7-14 days",marked compensatory elevations
same,Subjects who developed generalized exanthem (skin rash),"[2]; 10 mg/kg.day oral, after 9 days of treatment",8 of the 11
same,Enhancement of immune function,"[2]; high doses, normal volunteers, 7-14 days",does not result in measurable enhancement of immune function
"O=C([O-])CC(O)(C(=O)[O-])C(O)C(=O)[O-].[Na+].[Na+].[Na+] (stereo not drawn) [Tri-NaHCA, trisodium (−)-hydroxycitrate]",% Body H2O,[3]; Zucker lean,64.3%
same,"% Ash, wet",[3]; Zucker lean,4.9/NA %
same,"% Fat, wet",[3]; Zucker lean,8.05/NA %
same,"% Protein, wet",[3]; Zucker lean,22.0/NA %
same,% Body H2O,[3]; Zucker obese,25.8%
same,"% Ash, wet",[3]; Zucker obese,2.6/NA %
same,"% Fat, wet",[3]; Zucker obese,59.8/NA %
same,"% Protein, wet",[3]; Zucker obese,11.8/NA %
same,Carcass protein and ash/mineral content compared with control,[3]; lean and obese animals,increased
